Legend:
Assay type in all cases: cell-based
[1] = test system: mixed Pseudomonas aeruginosa (ATCC 9027) and Burkholderia cepacia (ATCC 25416); test: CTFA-type challenge test, mixed P. aeruginosa + B. cepacia inoculum; details: Make-up Remover at pH 8.1 with 0.83% Benzyl Alcohol
Excerpt: (§1) CTFA Challenge Test Procedure: A challenge protocol similar to the CTFA method was followed to assess efficacy against a broad spectrum of microorganisms. The five separate inocula were: Staphylococcus aureus (ATCC 6538), mixed Pseudomonas aeruginosa (ATCC 9027) and Burkholderia cepacia (ATCC 25416), mixed Klebsiella pneumoniae (ATCC 4352) and Enterobacter gergoviae (ATCC 33028), Candida albicans (ATCC 10231), and a mixture of molds: Aspergillus niger (ATCC 16404) and 2 Penicillium sp. isolated from cosmetic products. Samples (35 grams each) were inoculated with approximately 2,000,000 bacteria per gram or 100,000 yeast cells or mold spores per gram. Individual challenges were prepared from overnight slants of bacteria and yeast cultures and from heavily sporulating mold cultures, 7 to 10 days old. All samples were plated quantitatively for viable organisms after 24 hours and weekly for up to 4 weeks. Samples inoculated with mold spores were also plated after 48 hours. Samples were re-challenged after four weeks (or sooner where appropriate) and the same sampling regime followed.
(§2) Recommended “Pass” Criteria: CTFA recommends at least a 99.9% reduction of vegetative bacteria and at least a 90% reduction of yeasts and molds within 7 days following each challenge with no increase in count thereafter.
(§3) The preservative concentrates were added to these formulations to give a final concentration of 1%. […]

[2] = test system: mixed Pseudomonas aeruginosa (ATCC 9027) and Burkholderia cepacia (ATCC 25416); test: as above; details: Make-up Remover at pH 8.1 with 0.83% Benzyl Alcohol; Challenge #2; 48 Hours
[3] = test system: Staphylococcus aureus (ATCC 6538); test: CTFA-type challenge test, S. aureus inoculum; details: Make-up Remover at pH 8.1 with 0.83% Benzyl Alcohol
[4] = test system: mixed Klebsiella pneumoniae (ATCC 4352) and Enterobacter gergoviae (ATCC 33028); test: CTFA-type challenge test, mixed K. pneumoniae + E. gergoviae inoculum; details: Make-up Remover at pH 8.1 with 0.83% Benzyl Alcohol
Excerpt: as §1, §2, §3

[5] = test system: mixture of molds: Aspergillus niger (ATCC 16404) and 2 Penicillium sp.; test: CTFA-type challenge test, mixed mold inoculum; details: for Colony Forming Units per Gram (CFU/g), Mixed Molds: Make-up Remover at pH 8.1 with 0.83% Benzyl Alcohol
Excerpt: as §1, §2, §3
To determine if the unexpected activity of ECT 4 at high pH (8.1) can be attributed solely to the activity of benzyl alcohol the high pH make-up remover was preserved with 1% ECT4 and with 0.83% benzyl alcohol (equivalent amount found in 1% ECT4).

[6] = test system: mixed Klebsiella pneumoniae (ATCC 4352) and Enterobacter gergoviae (ATCC 33028); test: CTFA-type challenge test, mixed K. pneumoniae + E. gergoviae inoculum; details: Make-up Remover at pH 8.1 with 0.83% Benzyl Alcohol; Challenge #2; 48 Hours
[7] = test system: Candida albicans (ATCC 10231); test: CTFA-type challenge test, C. albicans inoculum; details: Make-up Remover at pH 8.1 with 0.83% Benzyl Alcohol
[8] = High pH Make-up Remover (pH 8.1), 0.83% benzyl alcohol

How did the “Colony Forming Units per Gram (CFU/g), P. aeruginosa + B. cepacia” value ([1]; Challenge #1, 7 Days) turn out when `OCc1ccccc1` [benzyl alcohol] was run?
The value was under 10 CFU/g.

And the “Colony Forming Units per Gram (CFU/g), P. aeruginosa + B. cepacia” value ([1]; Challenge #1, 14 Days)?
Its value is under 10 CFU/g.

What about the “Colony Forming Units per Gram (CFU/g), P. aeruginosa + B. cepacia” value ([1]; Challenge #1, 21 Days) of the same molecule?
Its value is under 10 CFU/g.

What about the “Colony Forming Units per Gram (CFU/g), P. aeruginosa + B. cepacia” value ([1]; Challenge #1, 24 Hours) of the same molecule?
The value was under 10 CFU/g.

And the “Colony Forming Units per Gram (CFU/g), P. aeruginosa + B. cepacia” value ([1]; Challenge #1, 28 Days)?
The value was under 10 CFU/g.

What about the “Colony Forming Units per Gram (CFU/g), P. aeruginosa + B. cepacia” value ([1]; Challenge #2, 7 Days) of the same molecule?
Its value is under 10 CFU/g.

What about the “Colony Forming Units per Gram (CFU/g), P. aeruginosa + B. cepacia” value ([1]; Challenge #2, 14 Days) of the same molecule?
The value was under 10 CFU/g.

And the “Colony Forming Units per Gram (CFU/g), P. aeruginosa + B. cepacia” value ([1]; Challenge #2, 21 Days)?
The value was under 10 CFU/g.

And the “Colony Forming Units per Gram (CFU/g), P. aeruginosa + B. cepacia” value ([1]; Challenge #2, 28 Days)?
Its value is under 10 CFU/g.

What about the “Colony Forming Units per Gram (CFU/g), P. aeruginosa + B. cepacia” value [2] of the same molecule?
Its value is under 10 CFU/g.

And the “Colony Forming Units per Gram (CFU/g), S. aureus” value ([3]; Challenge #1, 7 Days)?
The value was under 10 CFU/g.

What about the “Colony Forming Units per Gram (CFU/g), S. aureus” value ([3]; Challenge #1, 14 Days) of the same molecule?
Its value is under 10 CFU/g.

And the “Colony Forming Units per Gram (CFU/g), S. aureus” value ([3]; Challenge #1, 21 Days)?
Its value is under 10 CFU/g.

And the “Colony Forming Units per Gram (CFU/g), S. aureus” value ([3]; Challenge #1, 24 Hours)?
The value was under 10 CFU/g.

What about the “Colony Forming Units per Gram (CFU/g), S. aureus” value ([3]; Challenge #1, 28 Days) of the same molecule?
The value was under 10 CFU/g.

And the “Colony Forming Units per Gram (CFU/g), S. aureus” value ([3]; Challenge #2, 7 Days)?
Its value is under 10 CFU/g.

And the “Colony Forming Units per Gram (CFU/g), S. aureus” value ([3]; Challenge #2, 14 Days)?
Its value is under 10 CFU/g.

What about the “Colony Forming Units per Gram (CFU/g), S. aureus” value ([3]; Challenge #2, 21 Days) of the same molecule?
Its value is under 10 CFU/g.

And the “Colony Forming Units per Gram (CFU/g), S. aureus” value ([3]; Challenge #2, 28 Days)?
Its value is under 10 CFU/g.

What about the “Colony Forming Units per Gram (CFU/g), S. aureus” value ([3]; Challenge #2, 48 Hours) of the same molecule?
Its value is under 10 CFU/g.

What about the “Colony Forming Units per Gram (CFU/g), K. pneumoniae + E. gergoviae” value ([4]; Challenge #1, 7 Days) of the same molecule?
Its value is under 10 CFU/g.

What about the “Colony Forming Units per Gram (CFU/g), K. pneumoniae + E. gergoviae” value ([4]; Challenge #1, 14 Days) of the same molecule?
Its value is under 10 CFU/g.

What about the “Colony Forming Units per Gram (CFU/g), K. pneumoniae + E. gergoviae” value ([4]; Challenge #1, 21 Days) of the same molecule?
The value was under 10 CFU/g.

What about the “Colony Forming Units per Gram (CFU/g), K. pneumoniae + E. gergoviae” value ([4]; Challenge #1, 24 Hours) of the same molecule?
Its value is under 10 CFU/g.

And the “Colony Forming Units per Gram (CFU/g), K. pneumoniae + E. gergoviae” value ([4]; Challenge #1, 28 Days)?
The value was under 10 CFU/g.

And the “Colony Forming Units per Gram (CFU/g), K. pneumoniae + E. gergoviae” value ([4]; Challenge #2, 7 Days)?
Its value is under 10 CFU/g.

What about the “Colony Forming Units per Gram (CFU/g), K. pneumoniae + E. gergoviae” value ([4]; Challenge #2, 14 Days) of the same molecule?
Its value is under 10 CFU/g.

What about the “Colony Forming Units per Gram (CFU/g), K. pneumoniae + E. gergoviae” value ([4]; Challenge #2, 21 Days) of the same molecule?
Its value is under 10 CFU/g.

What about the “Colony Forming Units per Gram (CFU/g), K. pneumoniae + E. gergoviae” value ([4]; Challenge #2, 28 Days) of the same molecule?
The value was under 10 CFU/g.

What about the “CTFA recommendations for a minimum of 90% mold reduction in 7 days” value [5, 8] of the same molecule?
The value was “did not meet CTFA recommendations”.

And the “Efficacy against the mixed mold challenge” value [5, 8]?
Its value is “not sufficiently efficacious”.

What about the “Colony Forming Units per Gram (CFU/g), Mixed Molds” value ([5]; Challenge #1, 7 Days) of the same molecule?
The value was 3.0 × 10^4 CFU/g.

What about the “Colony Forming Units per Gram (CFU/g), Mixed Molds” value ([5]; Challenge #1, 14 Days) of the same molecule?
Its value is 8.0 × 10^4 CFU/g.

And the “Colony Forming Units per Gram (CFU/g), Mixed Molds” value ([5]; Challenge #1, 21 Days)?
The value was 1.5 × 10^4 CFU/g.

And the “Colony Forming Units per Gram (CFU/g), Mixed Molds” value ([5]; Challenge #1, 24 Hours)?
The value was 2.1 × 10^5 CFU/g.

And the “Colony Forming Units per Gram (CFU/g), Mixed Molds” value ([5]; Challenge #1, 28 Days)?
The value was 5.1 × 10^3 CFU/g.

And the “Colony Forming Units per Gram (CFU/g), Mixed Molds” value ([5]; Challenge #1, 48 Hours)?
Its value is 1.2 × 10^5 CFU/g.

What about the “Colony Forming Units per Gram (CFU/g), Mixed Molds” value ([5]; Challenge #2, 7 Days) of the same molecule?
The value was 3.4 × 10^3 CFU/g.

What about the “Colony Forming Units per Gram (CFU/g), Mixed Molds” value ([5]; Challenge #2, 14 Days) of the same molecule?
Its value is 3.6 × 10^3 CFU/g.

What about the “Colony Forming Units per Gram (CFU/g), Mixed Molds” value ([5]; Challenge #2, 21 Days) of the same molecule?
The value was 9.0 × 10^3 CFU/g.

What about the “Colony Forming Units per Gram (CFU/g), Mixed Molds” value ([5]; Challenge #2, 28 Days) of the same molecule?
Its value is 4.0 × 10^2 CFU/g.

And the “Colony Forming Units per Gram (CFU/g), Mixed Molds” value ([5]; Challenge #2, 48 Hours)?
Its value is 3.8 × 10^3 CFU/g.

And the “Colony Forming Units per Gram (CFU/g), K. pneumoniae + E. gergoviae” value [6]?
Its value is under 10 CFU/g.

What about the “Colony Forming Units per Gram (CFU/g), C. albicans” value ([7]; Challenge #1, 7 Days) of the same molecule?
The value was 1.6 × 10^2 CFU/g.

And the “Colony Forming Units per Gram (CFU/g), C. albicans” value ([7]; Challenge #1, 14 Days)?
The value was under 10 CFU/g.

And the “Colony Forming Units per Gram (CFU/g), C. albicans” value ([7]; Challenge #1, 21 Days)?
The value was under 10 CFU/g.

What about the “Colony Forming Units per Gram (CFU/g), C. albicans” value ([7]; Challenge #1, 24 Hours) of the same molecule?
The value was 3.1 × 10^4 CFU/g.

And the “Colony Forming Units per Gram (CFU/g), C. albicans” value ([7]; Challenge #1, 28 Days)?
The value was under 10 CFU/g.

What about the “Colony Forming Units per Gram (CFU/g), C. albicans” value ([7]; Challenge #2, 7 Days) of the same molecule?
Its value is under 10 CFU/g.

What about the “Colony Forming Units per Gram (CFU/g), C. albicans” value ([7]; Challenge #2, 14 Days) of the same molecule?
Its value is under 10 CFU/g.

What about the “Colony Forming Units per Gram (CFU/g), C. albicans” value ([7]; Challenge #2, 21 Days) of the same molecule?
Its value is under 10 CFU/g.

And the “Colony Forming Units per Gram (CFU/g), C. albicans” value ([7]; Challenge #2, 28 Days)?
The value was under 10 CFU/g.

And the “Colony Forming Units per Gram (CFU/g), C. albicans” value ([7]; Challenge #2, 48 Hours)?
The value was <1.0 × 10^2 CFU/g.
